The values that follow come from ChEMBL document CHEMBL2385042, “Diterpenoids with diverse skeletons from the roots of Euphorbia micractina” (J Nat Prod, 2013).

Assay [1] has as its target T1, Tyrosine-protein phosphatase non-receptor type 1 (Homo sapiens) (UniProt P18031).
T1 sequence (whole entry): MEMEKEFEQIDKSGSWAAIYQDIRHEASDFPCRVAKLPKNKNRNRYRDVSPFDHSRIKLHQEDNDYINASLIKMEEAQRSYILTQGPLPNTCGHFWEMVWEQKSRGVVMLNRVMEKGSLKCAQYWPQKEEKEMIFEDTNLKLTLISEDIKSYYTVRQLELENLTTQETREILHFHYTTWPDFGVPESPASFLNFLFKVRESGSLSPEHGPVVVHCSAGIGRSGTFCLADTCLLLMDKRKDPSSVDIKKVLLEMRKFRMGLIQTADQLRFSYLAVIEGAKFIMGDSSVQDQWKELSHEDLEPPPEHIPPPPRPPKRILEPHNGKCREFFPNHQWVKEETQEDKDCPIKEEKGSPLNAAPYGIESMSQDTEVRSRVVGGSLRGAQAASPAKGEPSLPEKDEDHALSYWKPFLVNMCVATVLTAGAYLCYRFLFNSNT
Nature of the assay: Inhibition of human recombinant GST-tagged PTP1B using para-nitrophenyl phosphate as substrate assessed as release of para-nitrophenol at 10 uM after 10 mins by spectrophotometric analysis.

The test system of a further assay is HCT-8. The assay is described as follows: Cytotoxicity against human HCT8 cells assessed as cell viability at 10 uM after 96 hrs by MTT assay. The class given is functional, cell-based. Background: Tetrazolium dyes change colour on reduction, which living cells bring about.
A further assay relates to KETR3. Nature of the assay: Cytotoxicity against human Ketr3 cells assessed as cell viability at 10 uM after 96 hrs by MTT assay. It counts as functional, cell-based.
The test system of a further assay is MCF7. Nature of the assay: Cytotoxicity against human MCF7 cells assessed as cell viability at 10 uM after 96 hrs by MTT assay. It counts as functional, cell-based.
The subject of another assay is Bel-7402. Nature of the assay: Cytotoxicity against human Bel7402 cells assessed as cell viability at 10 uM after 96 hrs by MTT assay. It counts as functional, cell-based.
The next assay deals with A549. Nature of the assay: Cytotoxicity against human A549 cells assessed as cell viability at 10 uM after 96 hrs by MTT assay. It counts as functional, cell-based.
The test system of a further assay is BGC-823. Nature of the assay: Cytotoxicity against human BGC823 cells assessed as cell viability at 10 uM after 96 hrs by MTT assay. It counts as functional, cell-based.
Assay [2] concerns Human immunodeficiency virus 1. The assay is described as follows: Antiviral activity against HIV1 infected in human 293T cells assessed as inhibition of viral replication at 10 uM incubated for 15 mins prior to infection measured after 48 hrs by luciferase reporter gene assay. The class given is functional, organism-based. In general terms: Reporter assays use an easily measured gene product as a stand-in for the process of interest.

In assay [3] the test system is Human immunodeficiency virus 1. Nature of the assay: Antiviral activity against HIV1 infected in human 293T cells assessed as inhibition of viral replication incubated for 15 mins prior to infection measured after 48 hrs by luciferase reporter gene assay. To be noted: Human immunodeficiency virus 1, HEK-293T. It counts as functional, organism-based.

Activity calls are given as the source filed them. No cut-off for these calls is given here.

As to `C[C@H]1C[C@]2(O)C(=O)[C@@]3(C)[C@@H]4O[C@H]4C(C)(C)[C@@H](O)CC[C@@]3(C)[C@H](O)[C@H]2[C@H]1OC(=O)c1ccccc1`, the inhibition entry in assay [1] was “inactive”. In addition, the outcome with HCT-8, in the assay with KETR3, in the assay with MCF7, in the assay with Bel-7402, in the assay on A549 and in the assay with BGC-823 was inactive. Moreover, the result in [2] was inactive.

For `C[C@H]1C[C@]2(O)C(=O)[C@@]3(C)[C@@H]4O[C@H]4C(C)(C)[C@@H](O)CC[C@@]3(C)[C@H](O)[C@H]2[C@H]1OC(=O)/C=C/c1ccccc1`, the inhibition result in assay [1] was “inactive”. In addition, the outcome in the assay with HCT-8, in the assay with KETR3, in the assay with MCF7, in the assay with Bel-7402, in the assay with A549 and with BGC-823 was inactive. Also, the outcome in assay [2] was inactive.

Take `C[C@H]1C[C@]2(O)C(=O)[C@@]3(C)[C@@H]4[C@@H](O)C(C)(C)[C@H]4CC[C@@]3(C)[C@H](O)[C@H]2[C@H]1OC(=O)c1ccccc1`: the inhibition result in assay [1] was “inactive”. The result with HCT-8, in the assay with KETR3, in the assay with MCF7, in the assay with Bel-7402, with A549 and in the assay with BGC-823 was inactive. The outcome in assay [2] was inactive.

On to `CO[C@@H]1[C@@H]2[C@H](CC[C@@]3(C)[C@H](O)[C@H]4[C@@H](OC(=O)/C=C/c5ccccc5)[C@@H](C)C[C@]4(O)C(=O)[C@@]13C)C2(C)C`, for which the inhibition entry in assay [1] is “inactive”. The result with HCT-8, in the assay with KETR3, in the assay on MCF7, in the assay with Bel-7402, in the assay on A549 and in the assay with BGC-823 was inactive. In assay [2], the result was inactive.

Consider `CO[C@@H]1[C@@H]2[C@H](CC[C@@]3(C)[C@H](O)[C@H]4[C@@H](O)[C@@H](C)C[C@]4(OC(=O)/C=C/c4ccccc4)C(=O)[C@@]23C)C1(C)C`, for which the inhibition result in assay [1] is “inactive”. Moreover, the outcome with HCT-8, with KETR3, in the assay on MCF7, with Bel-7402, with A549 and in the assay with BGC-823 was inactive. For the same compound, the result in [2] was inactive.

Turning to `C[C@H]1C[C@]2(O)C(=O)[C@@]3(C)[C@H](O)[C@@H]4[C@H](CC[C@@]3(C)[C@H](O)[C@H]2[C@H]1OC(=O)c1ccccc1)C4(C)C`, the inhibition entry in [1] was “inactive”. Besides, the outcome in the assay on HCT-8, in the assay with KETR3, in the assay with MCF7, in the assay with Bel-7402, with A549 and in the assay with BGC-823 was inactive. For the same compound, in [2], the result was inactive.

`CO[C@@H]1[C@@H]2[C@H](CC[C@@]3(C)[C@H](O)[C@H]4[C@@H](O)[C@@H](C)C[C@]4(OC(=O)c4ccccc4)C(=O)[C@@]13C)C2(C)C`: in assay [1], the inhibition result was “inactive”. Also, the result with HCT-8, with KETR3, with MCF7, in the assay with Bel-7402, in the assay on A549 and with BGC-823 was inactive. In [2], the result was inactive.

For `O=C1Nc2ccc(Cl)cc2[C@@](C#CC2CC2)(C(F)(F)F)O1` [EFAVIRENZ], the 50% inhibitory concentration (IC50) – broadly, the point on the concentration scale where inhibition reaches its midpoint – in [3] was 60 nM.

Turning to `C[C@H]1C[C@]2(O)C(=O)[C@@]3(C)[C@@H]4[C@@H](O)C(C)(C)[C@H]4CC[C@@]3(C)[C@H](O)[C@H]2[C@H]1OC(=O)/C=C/c1ccccc1`, the inhibition result in assay [1] was “inactive”. Moreover, the outcome with HCT-8, in the assay with KETR3, with MCF7, in the assay with Bel-7402, in the assay with A549 and in the assay with BGC-823 was inactive. In addition, the result in assay [2] was inactive.

`CCO[C@@H]1[C@@H]2[C@H](CC[C@@]3(C)[C@H](O)[C@H]4[C@@H](OC(=O)/C=C/c5ccccc5)[C@@H](C)C[C@]4(O)C(=O)[C@@]13C)C2(C)C`: the inhibition entry in [1] was “inactive”. In addition, the outcome in the assay with HCT-8, in the assay with KETR3, in the assay with MCF7, in the assay on Bel-7402, in the assay with A549 and with BGC-823 was inactive. Further, in assay [2], the result was inactive.

Turning to `CCO[C@@H]1[C@@H]2[C@H](CC[C@@]3(C)[C@H](O)[C@H]4[C@@H](OC(=O)c5ccccc5)[C@@H](C)C[C@]4(O)C(=O)[C@@]13C)C2(C)C`, in [1], the inhibition entry is “inactive”. Besides, the outcome in the assay with HCT-8, in the assay on KETR3, in the assay on MCF7, in the assay on Bel-7402, with A549 and in the assay with BGC-823 was inactive. In assay [2], the outcome was inactive.

As to `C[C@H]1C[C@]2(O)C(=O)[C@@]3(C)[C@H](O)[C@@H]4[C@H](CC[C@@]3(C)[C@H](O)[C@H]2[C@H]1OC(=O)/C=C/c1ccccc1)C4(C)C`, the inhibition result in assay [1] was “inactive”. Also, the result with HCT-8, in the assay with KETR3, in the assay with MCF7, in the assay with Bel-7402, in the assay on A549 and with BGC-823 was inactive. In addition, in assay [2], the result was inactive.
